Where two headings read alike, the source gives them in different places.

The subject of assay [1] is SARS-CoV-2 Omicron BA.5. Put plainly: Antiviral activity (CPE inhibition) in Vero E6 cells, Omicron BA.5. Conditions: read-out: EC50 against Omicron BA.5 variant. In kind it is cell-based.
Assay [2] deals with SARS-CoV-2 Omicron EG.5. The assay is described as follows: Antiviral activity (CPE inhibition) in Vero E6 cells, Omicron EG.5. It counts as cell-based. Conditions: read-out: EC50 against Omicron EG.5 variant.
The mark [3] stands for this setting: Severe acute respiratory syndrome coronavirus 2, Vero C1008, 48 h.

Regarding `O=C(OC[C@H]1O[C@@H](OC(=O)c2cc(O)c(O)c(O)c2)[C@H](OC(=O)c2cc(O)c(O)c(O)c2)[C@@H](OC(=O)c2cc(O)c(O)c(O)c2)[C@@H]1OC(=O)c1cc(O)c(O)c(O)c1)c1cc(O)c(O)c(O)c1` [PGG, 1,2,3,4,6-penta-O-galloyl-β-D-glucose], the half-maximal effective concentration (EC50) was 3.2 µM in assay [1] (setting [3]) and 15.4 µM in assay [2] (setting [3]).

On to `O=C(OC[C@H]1O[C@@H](OC(=O)c2cc(O)c(O)c(O)c2)[C@H](OC(=O)c2cc(O)c(O)c(O)c2)[C@@H](OC(=O)c2cc(O)c(O)c(O)c2)[C@@H]1O)c1cc(O)c(O)c(O)c1` [TGG, 1,2,3,6-tetra-O-galloyl-β-D-glucose], for which the EC50 in assay [1] (setting [3]) was 25.7 µM; in assay [2] (setting [3]) it was 37.3 µM.

For the compound `Cn1cnc(Cn2c(=O)[nH]/c(=N\c3cc4cn(C)nc4cc3Cl)n(Cc3cc(F)c(F)cc3F)c2=O)n1` [S-217622, reference compound], the EC50 in assay [1] is 0.09 µM; in assay [2] it was 0.06 µM.
